Read-outs that look alike come from different tables or passages of the source.
What was measured:
[1] = Effect of relative BMIPP/IPP mass ratios on biodistribution properties in rats; type: in vivo; details: ratios of up to 6:1
Description: Nevertheless, in the present experiment, the mass of each fatty acid injected was very similar to eliminate any effects of possible synergistic action on myocardial uptake. […] Within a few minutes following injection, however, differences in retention are clearly evident in fasted animals.

[2] = Myocardial uptake/retention and heart:blood ratio, DMIPP compared with monomethyl BMIPP and IPP; details: after 60 min
Method: (§4) Iodine-125 DMIPP was administered in 6% BSA solution to groups of fasted and fed rats. The animals were killed at time periods varying from 5 min to 8 h and selected tissues and aliquots of blood removed and analyzed in a gamma spectrometer.

[3] = Triple-label experiment, (123I)DMIPP/(131I)BMIPP/(125I)IPP mixture in fasted rats; type: in vivo, fasted female Fischer rats; details: for initial uptake or "extraction" phase (myocardial): DMIPP, BMIPP and IPP compared
Description: Nevertheless, in the present experiment, the mass of each fatty acid injected was very similar to eliminate any effects of possible synergistic action on myocardial uptake.

[4] = Myocardial retention after intravenous administration to unfasted rats; type: in vivo; details: first couple of hours after intravenous administration
Description: Dimethyl branching was placed at the beta carbon to compare it with the monomethyl branched analogue and because of ease of synthesis. It is believed that dimethyl branching at the alpha carbon would give similar results.

[5] = rat, in vivo
Method: as §4

in vivo = experiment: in vivo; design: species or system female Fischer rats; details: rat, iv; for tissue uptake at 5 min / tissue uptake at 0.5 h / tissue uptake at 1 h / tissue uptake at 2 h / tissue uptake at 4 h / tissue uptake at 8 h: distribution of radioactivity
Method: (§1) DISTRIBUTION OF RADIOACTIVITY
(% INJECTED DOSE/GRAM OF TISSUE) IN FASTED
(§2) RATS AT VARIOUS TIMES AFTER INTRAVENOUS ADMINISTRATION OF
(§3) 15-(p-[^125 I]IODOPHENYL)-3,3-DIMETHYLPENTADECANOIC ACID (DMIPP)
Mean and range values for five (5, 30 and 60 min) or four (2, 4 and 8 h)
female Fischer rats. Other tissues that were analyzed include spleen,
as §1
(% INJECTED DOSE/ORGAN OF TISSUE) IN FASTED
as §2, §3
Time after injection; Percent injected dose/organ (range)

CC(CCCCCCCCCCCCc1ccc([123I])cc1)CC(=O)O (stereo not drawn) [BMIPP]
effect of relative BMIPP/IPP mass ratios on biodistribution properties [1]: insignificant effect
loss (washout) from heart [2]: approximately 40%
initial uptake or "extraction" phase (myocardial) [3]: very similar for these three agents

CC(C)(CCCCCCCCCCCCc1ccc(I)cc1)CC(=O)O [DMIPP, 15-(p-iodophenyl)-3,3-dimethylpentadecanoic acid]
initial uptake or "extraction" phase (myocardial) [3]: very similar for these three agents
retention and heart:blood ratios (triple label) ([3]; in comparison to BMIPP and IPP): greater retention and higher heart:blood ratios
myocardial retention [4]: essentially irreversible myocardial retention
heart-to-blood ratio [5]: 10/1
heart:blood ratios, in words [5]: much higher heart:blood ratios
loss (washout) from heart [5]: approximately 24%
myocardial retention, effect of dimethyl branching into the IPP molecule [5]: substantial increase in the myocardial retention
myocardial uptake [5]: high myocardial uptake
radioiodine in the blood, effect of dimethyl branching into the IPP molecule [5]: dramatic decrease of radioiodine in the blood
retention in the heart [5]: prolonged retention
t1/2 (heart retention) [5]: 12 h
time it remained measurable (in the heart) [5]: up to 12 hours
mean heart:blood ratios ([5]; 15 min): greater than 10:1
Blood, distribution of radioactivity (in vivo; 5 min): 8.47 % injected dose/organ
Heart, distribution of radioactivity (in vivo; 5 min): 1.95 % injected dose/organ
Kidneys, distribution of radioactivity (in vivo; 5 min): 1.45 % injected dose/organ
Liver, distribution of radioactivity (in vivo; 5 min): 30.9 % injected dose/organ
Lungs, distribution of radioactivity (in vivo; 5 min): 1.63 % injected dose/organ
Mean Heart:Blood (in vivo; 5 min): 3:1
Thyroid, distribution of radioactivity (in vivo; 5 min): 0.14 % injected dose/organ
Blood, distribution of radioactivity (in vivo; 30 min): 2.30 % injected dose/organ
Heart, distribution of radioactivity (in vivo; 30 min): 2.09 % injected dose/organ
Kidneys, distribution of radioactivity (in vivo; 30 min): 1.49 % injected dose/organ
Liver, distribution of radioactivity (in vivo; 30 min): 28.8 % injected dose/organ
Lungs, distribution of radioactivity (in vivo; 30 min): 0.99 % injected dose/organ
Mean Heart:Blood (in vivo; 30 min): 12:1
Thyroid, distribution of radioactivity (in vivo; 30 min): 0.15 % injected dose/organ
Blood, distribution of radioactivity (in vivo; 60 min): 2.41 % injected dose/organ
Heart, distribution of radioactivity (in vivo; 60 min): 2.24 % injected dose/organ
Kidneys, distribution of radioactivity (in vivo; 60 min): 1.51 % injected dose/organ
Liver, distribution of radioactivity (in vivo; 60 min): 32.4 % injected dose/organ
Lungs, distribution of radioactivity (in vivo; 60 min): 0.98 % injected dose/organ
Mean Heart:Blood (in vivo; 60 min): 12.5:1
Thyroid, distribution of radioactivity (in vivo; 60 min): 0.11 % injected dose/organ
Blood, distribution of radioactivity (in vivo; 120 min): 2.24 % injected dose/organ
Heart, distribution of radioactivity (in vivo; 120 min): 1.99 % injected dose/organ
Kidneys, distribution of radioactivity (in vivo; 120 min): 1.62 % injected dose/organ
Liver, distribution of radioactivity (in vivo; 120 min): 22.8 % injected dose/organ
Lungs, distribution of radioactivity (in vivo; 120 min): 0.87 % injected dose/organ
Mean Heart:Blood (in vivo; 120 min): 12.6:1
Thyroid, distribution of radioactivity (in vivo; 120 min): 0.17 % injected dose/organ
Blood, distribution of radioactivity (in vivo; 240 min): 2.04 % injected dose/organ
Heart, distribution of radioactivity (in vivo; 240 min): 1.56 % injected dose/organ
Kidneys, distribution of radioactivity (in vivo; 240 min): 1.58 % injected dose/organ
Liver, distribution of radioactivity (in vivo; 240 min): 16.7 % injected dose/organ
Lungs, distribution of radioactivity (in vivo; 240 min): 1.77 % injected dose/organ
Mean Heart:Blood (in vivo; 240 min): 11.2:1
Thyroid, distribution of radioactivity (in vivo; 240 min): 0.22 % injected dose/organ
Blood, distribution of radioactivity (in vivo; 480 min): 1.59 % injected dose/organ
Heart, distribution of radioactivity (in vivo; 480 min): 1.05 % injected dose/organ
Kidneys, distribution of radioactivity (in vivo; 480 min): 1.34 % injected dose/organ
Liver, distribution of radioactivity (in vivo; 480 min): 11.4 % injected dose/organ
Lungs, distribution of radioactivity (in vivo; 480 min): 0.66 % injected dose/organ
Mean Heart:Blood (in vivo; 480 min): 9.3:1
Thyroid, distribution of radioactivity (in vivo; 480 min): 0.28 % injected dose/organ
tissue uptake at 5 min (in vivo; Blood): 1.48 %ID/g
tissue uptake at 0.5 h (in vivo; Blood): 0.42 %ID/g
tissue uptake at 1 h (in vivo; Blood): 0.36 %ID/g
tissue uptake at 2 h (in vivo; Blood): 0.35 %ID/g
tissue uptake at 4 h (in vivo; Blood): 0.31 %ID/g
tissue uptake at 8 h (in vivo; Blood): 0.24 %ID/g
tissue uptake at 5 min (in vivo; Heart): 4.67 %ID/g
tissue uptake at 0.5 h (in vivo; Heart): 5.06 %ID/g
tissue uptake at 1 h (in vivo; Heart): 4.49 %ID/g
tissue uptake at 2 h (in vivo; Heart): 4.37 %ID/g
tissue uptake at 4 h (in vivo; Heart): 3.53 %ID/g
tissue uptake at 8 h (in vivo; Heart): 2.24 %ID/g
tissue uptake at 5 min (in vivo; Kidneys): 1.39 %ID/g
tissue uptake at 0.5 h (in vivo; Kidneys): 1.47 %ID/g
tissue uptake at 1 h (in vivo; Kidneys): 1.46 %ID/g
tissue uptake at 2 h (in vivo; Kidneys): 1.41 %ID/g
tissue uptake at 4 h (in vivo; Kidneys): 1.39 %ID/g
tissue uptake at 8 h (in vivo; Kidneys): 1.19 %ID/g
tissue uptake at 5 min (in vivo; Liver): 7.73 %ID/g
tissue uptake at 0.5 h (in vivo; Liver): 7.3 %ID/g
tissue uptake at 1 h (in vivo; Liver): 6.02 %ID/g
tissue uptake at 2 h (in vivo; Liver): 5.32 %ID/g
tissue uptake at 4 h (in vivo; Liver): 3.56 %ID/g
tissue uptake at 8 h (in vivo; Liver): 2.52 %ID/g
tissue uptake at 5 min (in vivo; Lungs): 2.15 %ID/g
tissue uptake at 0.5 h (in vivo; Lungs): 1.42 %ID/g
tissue uptake at 1 h (in vivo; Lungs): 1.17 %ID/g
tissue uptake at 2 h (in vivo; Lungs): 1.12 %ID/g
tissue uptake at 4 h (in vivo; Lungs): 0.97 %ID/g
tissue uptake at 8 h (in vivo; Lungs): 0.79 %ID/g
tissue uptake at 5 min (in vivo; Thyroid): 16.7 %ID/g
tissue uptake at 0.5 h (in vivo; Thyroid): 18.5 %ID/g
tissue uptake at 1 h (in vivo; Thyroid): 15.8 %ID/g
tissue uptake at 2 h (in vivo; Thyroid): 17.9 %ID/g
tissue uptake at 4 h (in vivo; Thyroid): 22.9 %ID/g
tissue uptake at 8 h (in vivo; Thyroid): 27.8 %ID/g

O=C(O)CCCCCCCCCCCCCCc1ccc([125I])cc1 [IPP, reference compound]
effect of relative BMIPP/IPP mass ratios on biodistribution properties [1]: insignificant effect
initial uptake or "extraction" phase (myocardial) [3]: very similar for these three agents
